Assay results as given in the supplement of paper PMC12076712.

How the values were obtained:
Test in all cases: pIC50, kinobeads binding competition
UniProt P48729 = target: UniProt P48729
In short: (§1)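 Live Jurkat cells were treated with nine compound concentrations (top 30 μM, 1:4 steps) or DMSO for 60 min at 37 °C before lysis. Alternatively, Jurkat lysate or a 1:1:1:1 HEK293/K-562/HepG2/placenta lysate mix was incubated with nine concentrations (top 30 μM, 1:5 steps) for 60 min at 4 °C. Kinobeads-bound proteins were digested and quantified by TMT10 LC-MS/MS. pIC50 came from logistic dose-response fits (R drc package) of fold changes versus DMSO, in biological duplicates.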

UniProt P06493 = target: UniProt P06493
Chain of UniProt P06493 (P06493 whole entry, looked up): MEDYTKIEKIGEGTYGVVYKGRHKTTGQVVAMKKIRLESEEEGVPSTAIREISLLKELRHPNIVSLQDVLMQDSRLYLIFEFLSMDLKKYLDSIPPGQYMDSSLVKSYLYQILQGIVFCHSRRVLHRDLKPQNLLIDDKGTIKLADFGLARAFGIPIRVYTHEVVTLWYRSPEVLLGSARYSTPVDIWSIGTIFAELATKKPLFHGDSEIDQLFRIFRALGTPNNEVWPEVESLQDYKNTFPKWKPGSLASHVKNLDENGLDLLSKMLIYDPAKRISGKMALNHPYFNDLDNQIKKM
In short: as §1

ICK = target: T1, ICK (UniProt Q9UPZ9)
T1 sequence (whole entry): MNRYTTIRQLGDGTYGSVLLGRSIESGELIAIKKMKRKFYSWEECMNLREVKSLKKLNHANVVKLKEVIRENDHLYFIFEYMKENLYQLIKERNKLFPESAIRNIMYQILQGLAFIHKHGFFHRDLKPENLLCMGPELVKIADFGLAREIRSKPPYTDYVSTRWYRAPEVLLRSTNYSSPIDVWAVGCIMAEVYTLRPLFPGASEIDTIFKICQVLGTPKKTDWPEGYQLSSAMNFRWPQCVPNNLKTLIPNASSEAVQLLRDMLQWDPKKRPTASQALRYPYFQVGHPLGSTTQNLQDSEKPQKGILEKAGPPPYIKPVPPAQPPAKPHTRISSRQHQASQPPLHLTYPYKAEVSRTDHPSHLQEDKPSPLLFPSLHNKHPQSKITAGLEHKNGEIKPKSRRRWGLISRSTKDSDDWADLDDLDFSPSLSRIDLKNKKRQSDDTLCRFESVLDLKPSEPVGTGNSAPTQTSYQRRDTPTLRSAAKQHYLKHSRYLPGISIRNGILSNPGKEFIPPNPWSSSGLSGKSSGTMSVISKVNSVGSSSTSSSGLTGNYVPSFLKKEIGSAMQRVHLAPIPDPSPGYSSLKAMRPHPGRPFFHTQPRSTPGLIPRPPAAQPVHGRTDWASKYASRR
In short: as §1

UniProt Q13233 = target: UniProt Q13233
Chain of UniProt Q13233 (Q13233 whole entry): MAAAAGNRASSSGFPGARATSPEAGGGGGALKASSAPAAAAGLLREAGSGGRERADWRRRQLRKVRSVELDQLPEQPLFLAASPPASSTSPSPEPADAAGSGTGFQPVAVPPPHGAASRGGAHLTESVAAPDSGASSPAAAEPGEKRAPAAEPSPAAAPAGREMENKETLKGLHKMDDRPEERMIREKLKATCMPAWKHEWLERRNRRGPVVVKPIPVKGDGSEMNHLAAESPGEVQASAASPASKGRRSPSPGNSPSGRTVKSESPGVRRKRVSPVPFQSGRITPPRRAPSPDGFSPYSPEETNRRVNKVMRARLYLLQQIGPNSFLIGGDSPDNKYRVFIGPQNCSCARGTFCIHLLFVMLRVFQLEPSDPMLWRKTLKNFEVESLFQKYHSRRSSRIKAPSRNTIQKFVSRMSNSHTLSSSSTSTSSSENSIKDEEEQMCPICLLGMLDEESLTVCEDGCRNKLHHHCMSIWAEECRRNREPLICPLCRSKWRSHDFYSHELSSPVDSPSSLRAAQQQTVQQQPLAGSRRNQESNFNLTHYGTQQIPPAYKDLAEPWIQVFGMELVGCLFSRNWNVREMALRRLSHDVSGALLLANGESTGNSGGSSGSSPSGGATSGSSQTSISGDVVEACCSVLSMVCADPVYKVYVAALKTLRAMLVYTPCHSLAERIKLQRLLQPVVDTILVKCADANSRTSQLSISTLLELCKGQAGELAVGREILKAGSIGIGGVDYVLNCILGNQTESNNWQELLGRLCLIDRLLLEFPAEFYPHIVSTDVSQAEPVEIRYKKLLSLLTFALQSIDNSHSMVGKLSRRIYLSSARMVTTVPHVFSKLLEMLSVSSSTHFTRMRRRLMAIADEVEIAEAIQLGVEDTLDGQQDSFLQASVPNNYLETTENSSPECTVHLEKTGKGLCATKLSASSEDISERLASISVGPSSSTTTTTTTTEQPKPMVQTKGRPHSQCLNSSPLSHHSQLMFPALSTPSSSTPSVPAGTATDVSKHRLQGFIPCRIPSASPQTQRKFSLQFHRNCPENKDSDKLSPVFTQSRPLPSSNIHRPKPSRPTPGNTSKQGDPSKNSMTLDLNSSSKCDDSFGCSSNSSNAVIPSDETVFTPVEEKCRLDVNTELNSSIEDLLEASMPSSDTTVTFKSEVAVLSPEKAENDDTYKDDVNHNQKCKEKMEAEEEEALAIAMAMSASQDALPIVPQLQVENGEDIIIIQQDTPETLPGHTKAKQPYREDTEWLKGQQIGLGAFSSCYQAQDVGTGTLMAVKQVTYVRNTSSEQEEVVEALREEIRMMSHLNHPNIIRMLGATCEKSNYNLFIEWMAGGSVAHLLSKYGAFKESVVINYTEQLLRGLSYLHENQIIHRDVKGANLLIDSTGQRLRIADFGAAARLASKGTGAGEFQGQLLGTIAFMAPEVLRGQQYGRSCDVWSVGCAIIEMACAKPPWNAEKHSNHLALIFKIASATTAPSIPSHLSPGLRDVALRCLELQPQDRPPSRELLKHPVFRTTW
In short: as §1

PRKD2 = target: T2, PRKD2 (UniProt Q9BZL6)
T2 sequence (whole entry): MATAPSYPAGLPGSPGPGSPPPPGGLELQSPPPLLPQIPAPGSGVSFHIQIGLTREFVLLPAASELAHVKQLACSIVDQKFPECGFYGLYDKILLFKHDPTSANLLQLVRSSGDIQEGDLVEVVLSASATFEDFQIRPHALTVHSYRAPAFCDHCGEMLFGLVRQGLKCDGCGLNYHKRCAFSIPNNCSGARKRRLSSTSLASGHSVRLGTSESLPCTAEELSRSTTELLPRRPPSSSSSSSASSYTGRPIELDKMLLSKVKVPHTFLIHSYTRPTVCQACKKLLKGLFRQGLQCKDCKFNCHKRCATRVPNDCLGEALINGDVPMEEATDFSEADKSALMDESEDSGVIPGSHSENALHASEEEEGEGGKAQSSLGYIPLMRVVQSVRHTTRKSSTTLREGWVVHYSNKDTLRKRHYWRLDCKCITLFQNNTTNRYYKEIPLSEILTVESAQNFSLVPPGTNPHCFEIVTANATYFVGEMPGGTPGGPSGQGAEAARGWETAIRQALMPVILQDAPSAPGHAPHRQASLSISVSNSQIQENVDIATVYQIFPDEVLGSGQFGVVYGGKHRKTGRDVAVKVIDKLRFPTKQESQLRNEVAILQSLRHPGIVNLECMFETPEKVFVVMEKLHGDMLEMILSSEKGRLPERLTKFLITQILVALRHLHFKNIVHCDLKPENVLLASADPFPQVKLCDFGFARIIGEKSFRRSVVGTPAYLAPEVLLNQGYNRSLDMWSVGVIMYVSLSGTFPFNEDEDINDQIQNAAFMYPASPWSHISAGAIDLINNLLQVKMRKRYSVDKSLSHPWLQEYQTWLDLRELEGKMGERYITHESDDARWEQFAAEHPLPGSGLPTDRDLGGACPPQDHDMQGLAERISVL
In short: as §1

UniProt Q00536 = target: UniProt Q00536
Chain of UniProt Q00536 (Q00536 whole entry): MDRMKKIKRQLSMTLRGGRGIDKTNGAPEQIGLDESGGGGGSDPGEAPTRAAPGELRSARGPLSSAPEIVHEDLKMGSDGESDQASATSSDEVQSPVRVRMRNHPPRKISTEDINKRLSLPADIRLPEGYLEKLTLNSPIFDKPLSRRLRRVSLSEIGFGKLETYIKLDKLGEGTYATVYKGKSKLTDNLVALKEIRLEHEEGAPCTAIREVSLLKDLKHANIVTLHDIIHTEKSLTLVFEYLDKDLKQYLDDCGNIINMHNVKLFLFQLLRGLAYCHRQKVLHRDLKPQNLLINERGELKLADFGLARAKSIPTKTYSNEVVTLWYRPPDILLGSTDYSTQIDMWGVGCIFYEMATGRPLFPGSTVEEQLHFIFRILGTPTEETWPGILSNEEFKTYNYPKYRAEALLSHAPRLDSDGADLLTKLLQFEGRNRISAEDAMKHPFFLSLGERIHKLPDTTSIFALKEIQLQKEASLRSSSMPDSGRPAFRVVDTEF
In short: as §1

CDKL5 = target: T3, CDKL5 (UniProt O76039)
T3 sequence (whole entry): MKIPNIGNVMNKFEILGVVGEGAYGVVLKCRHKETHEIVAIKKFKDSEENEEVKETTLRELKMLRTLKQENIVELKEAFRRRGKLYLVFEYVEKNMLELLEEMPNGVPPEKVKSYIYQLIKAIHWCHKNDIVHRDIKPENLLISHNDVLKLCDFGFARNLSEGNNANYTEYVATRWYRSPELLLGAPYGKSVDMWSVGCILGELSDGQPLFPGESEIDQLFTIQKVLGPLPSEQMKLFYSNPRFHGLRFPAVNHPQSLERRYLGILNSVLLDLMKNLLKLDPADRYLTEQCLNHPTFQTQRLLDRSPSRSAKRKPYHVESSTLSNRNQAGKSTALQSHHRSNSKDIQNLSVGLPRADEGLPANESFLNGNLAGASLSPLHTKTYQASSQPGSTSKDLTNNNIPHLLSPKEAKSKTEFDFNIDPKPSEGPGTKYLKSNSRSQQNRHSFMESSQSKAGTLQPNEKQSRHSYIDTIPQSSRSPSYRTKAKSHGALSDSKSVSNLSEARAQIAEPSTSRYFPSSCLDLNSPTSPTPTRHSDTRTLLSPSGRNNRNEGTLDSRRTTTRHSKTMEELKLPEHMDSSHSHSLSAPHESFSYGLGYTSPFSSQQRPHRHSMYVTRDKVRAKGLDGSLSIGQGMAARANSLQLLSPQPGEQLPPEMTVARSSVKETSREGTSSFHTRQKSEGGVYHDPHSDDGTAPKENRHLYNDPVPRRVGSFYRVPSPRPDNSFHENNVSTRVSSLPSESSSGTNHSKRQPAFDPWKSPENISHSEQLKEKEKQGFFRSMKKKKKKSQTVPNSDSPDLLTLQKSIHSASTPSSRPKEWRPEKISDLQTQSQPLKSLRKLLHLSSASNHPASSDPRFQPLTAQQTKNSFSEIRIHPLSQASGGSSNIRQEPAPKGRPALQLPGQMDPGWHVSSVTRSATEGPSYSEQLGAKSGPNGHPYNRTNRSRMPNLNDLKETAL
In short: as §1

Chain of UniProt P48729 (P48729 whole entry, looked up): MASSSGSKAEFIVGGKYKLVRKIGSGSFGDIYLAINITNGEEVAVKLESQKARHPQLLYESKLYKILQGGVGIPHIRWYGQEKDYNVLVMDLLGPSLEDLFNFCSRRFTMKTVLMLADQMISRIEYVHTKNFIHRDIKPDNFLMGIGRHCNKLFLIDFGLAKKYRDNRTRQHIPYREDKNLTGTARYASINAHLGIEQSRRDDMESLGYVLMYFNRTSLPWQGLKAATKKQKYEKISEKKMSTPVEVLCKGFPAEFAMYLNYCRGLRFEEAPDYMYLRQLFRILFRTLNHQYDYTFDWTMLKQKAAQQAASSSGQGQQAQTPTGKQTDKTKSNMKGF

pIC50 (UniProt P48729; cell material: Lysate mix)	pIC50 (UniProt P06493; cell material: Lysate mix)	pIC50 (ICK; cell material: Lysate mix)	pIC50 (UniProt Q13233; cell material: Lysate mix)	pIC50 (PRKD2; cell material: Lysate mix)	pIC50 (UniProt Q00536; cell material: Lysate mix)	pIC50 (CDKL5; cell material: Lysate mix)	pIC50 (ICK; cell material: Jurkat cells)	pIC50 (UniProt Q13233; cell material: Jurkat cells)	SMILES	pIC50 (UniProt P48729; cell material: Jurkat cells)	pIC50 (UniProt P48729; cell material: Jurkat lysate)	pIC50 (UniProt P06493; cell material: Jurkat cells)	pIC50 (UniProt P06493; cell material: Jurkat lysate)	pIC50 (ICK; cell material: Jurkat lysate)	pIC50 (UniProt Q13233; cell material: Jurkat lysate)	pIC50 (PRKD2; cell material: Jurkat cells)	pIC50 (PRKD2; cell material: Jurkat lysate)	pIC50 (UniProt Q00536; cell material: Jurkat cells)	pIC50 (UniProt Q00536; cell material: Jurkat lysate)	pIC50 (CDKL5; cell material: Jurkat cells)	pIC50 (CDKL5; cell material: Jurkat lysate)
< 4.52	5.5	6.46	< 4.52	< 4.52	5.76	6.16	–	–	CCNC(=O)c1cc(Nc2cc(C3CC3)[nH]n2)nc(N2CCN(Cc3ccc(S(=O)(=O)F)cc3)CC2)n1	–	–	–	–	–	–	–	–	–	–	–	–
< 4.52	< 4.52	< 4.52	< 4.52	< 4.52	< 4.52	< 4.52	–	–	Cc1cc(Nc2cc(C(=O)NCCNC(=O)OC3CC/C=C/CCC3)nc(N3CCN(Cc4ccc(S(=O)(=O)F)cc4)CC3)n2)n[nH]1 (stereo unspecified)	–	–	–	–	–	–	–	–	–	–	–	–

The remaining lines, values behind:

SMILES	pIC50 (UniProt P48729; cell material: Lysate mix)	pIC50 (UniProt P06493; cell material: Lysate mix)	pIC50 (ICK; cell material: Lysate mix)	pIC50 (UniProt Q13233; cell material: Lysate mix)	pIC50 (PRKD2; cell material: Lysate mix)	pIC50 (UniProt Q00536; cell material: Lysate mix)	pIC50 (CDKL5; cell material: Lysate mix)	pIC50 (ICK; cell material: Jurkat cells)	pIC50 (UniProt Q13233; cell material: Jurkat cells)	pIC50 (UniProt P48729; cell material: Jurkat cells)	pIC50 (UniProt P48729; cell material: Jurkat lysate)	pIC50 (UniProt P06493; cell material: Jurkat cells)	pIC50 (UniProt P06493; cell material: Jurkat lysate)	pIC50 (ICK; cell material: Jurkat lysate)	pIC50 (UniProt Q13233; cell material: Jurkat lysate)	pIC50 (PRKD2; cell material: Jurkat cells)	pIC50 (PRKD2; cell material: Jurkat lysate)	pIC50 (UniProt Q00536; cell material: Jurkat cells)	pIC50 (UniProt Q00536; cell material: Jurkat lysate)	pIC50 (CDKL5; cell material: Jurkat cells)	pIC50 (CDKL5; cell material: Jurkat lysate)
C#CCNC(=O)c1cc(Nc2cc(C)[nH]n2)nc(N2CCN(Cc3ccc(S(=O)(=O)F)cc3)CC2)n1	< 4.52	< 4.52	5.43	< 4.52	< 4.52	< 4.52	5.23	–	–	–	–	–	–	–	–	–	–	–	–	–	–
C#CCNC(=O)c1cc(Nc2cc(C3CC3)[nH]n2)nc(N2CCN(Cc3ccc(S(=O)(=O)F)cc3)CC2)n1	< 4.52	5.7	6.53	< 4.52	< 4.52	5.89	6.41	–	–	5.51	< 4.52	6.32	5.37	6.22	< 4.52	5.42	< 4.52	6.35	5.01	6.89	5.95
O=C(NCCNC(=O)c1cc(Nc2cc(C3CC3)[nH]n2)nc(N2CCN(Cc3ccc(S(=O)(=O)F)cc3)CC2)n1)OC1CC/C=C/CCC1 (stereo unspecified)	< 4.52	< 4.52	5.38	< 4.52	< 4.52	< 4.52	5.12	6.56	< 4.52	–	< 4.52	5.11	< 4.52	5.31	< 4.52	< 4.52	< 4.52	5.85	< 4.52	–	4.89
CCNC(=O)c1cc(Nc2cc(C)[nH]n2)nc(N2CCN(Cc3ccc(S(=O)(=O)F)cc3)CC2)n1	< 4.52	< 4.52	5.64	< 4.52	< 4.52	4.76	5.11	–	–	–	–	–	–	–	–	–	–	–	–	–	–
